{"source": "patent US20220340629A1", "about": "“Myosin Derived Peptides and Related Compounds with Anticoagulant Activities” (THE SCRIPPS RESEARCH INSTITUTE, priority 0001, published 2022)", "note": "pIC50: −log10 of the molar value. Residues, ends and D or L forms follow the SMILES beside them."}
{"target": "skeletal muscle myosin-supported prothrombin activation by factors Xa and Va (Homo sapiens, UniProt P00742)", "sequence (P00742 41-179)": "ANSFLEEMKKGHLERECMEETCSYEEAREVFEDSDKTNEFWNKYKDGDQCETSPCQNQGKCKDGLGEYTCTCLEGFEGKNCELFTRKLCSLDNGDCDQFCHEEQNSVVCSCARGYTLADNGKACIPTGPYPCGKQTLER", "sequence (P00742 235-488)": "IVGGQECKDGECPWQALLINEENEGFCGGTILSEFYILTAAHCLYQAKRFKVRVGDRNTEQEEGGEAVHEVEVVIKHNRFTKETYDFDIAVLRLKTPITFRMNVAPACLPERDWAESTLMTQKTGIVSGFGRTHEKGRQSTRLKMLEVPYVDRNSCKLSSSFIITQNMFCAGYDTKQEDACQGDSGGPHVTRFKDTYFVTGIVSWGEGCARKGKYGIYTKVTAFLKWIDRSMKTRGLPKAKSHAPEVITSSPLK", "sequence (P12259 29-737 partner)": "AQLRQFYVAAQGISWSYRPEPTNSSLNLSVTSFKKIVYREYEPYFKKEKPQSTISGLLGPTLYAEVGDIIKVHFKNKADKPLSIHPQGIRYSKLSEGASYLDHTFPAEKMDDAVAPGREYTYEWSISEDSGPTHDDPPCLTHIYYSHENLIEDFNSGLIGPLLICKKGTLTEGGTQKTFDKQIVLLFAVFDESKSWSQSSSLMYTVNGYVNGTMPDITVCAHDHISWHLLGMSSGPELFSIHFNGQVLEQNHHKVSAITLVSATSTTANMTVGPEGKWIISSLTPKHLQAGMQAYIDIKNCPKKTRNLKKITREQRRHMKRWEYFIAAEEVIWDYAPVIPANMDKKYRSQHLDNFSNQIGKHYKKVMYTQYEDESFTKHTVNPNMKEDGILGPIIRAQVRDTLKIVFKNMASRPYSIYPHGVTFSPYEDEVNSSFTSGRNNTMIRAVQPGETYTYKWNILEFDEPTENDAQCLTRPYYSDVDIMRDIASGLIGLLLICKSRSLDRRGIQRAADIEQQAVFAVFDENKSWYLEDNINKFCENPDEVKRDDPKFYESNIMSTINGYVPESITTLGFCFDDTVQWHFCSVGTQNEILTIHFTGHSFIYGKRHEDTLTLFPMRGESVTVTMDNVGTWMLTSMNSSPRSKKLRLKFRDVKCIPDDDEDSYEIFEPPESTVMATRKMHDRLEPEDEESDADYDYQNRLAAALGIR", "sequence (P12259 1574-2224 partner)": "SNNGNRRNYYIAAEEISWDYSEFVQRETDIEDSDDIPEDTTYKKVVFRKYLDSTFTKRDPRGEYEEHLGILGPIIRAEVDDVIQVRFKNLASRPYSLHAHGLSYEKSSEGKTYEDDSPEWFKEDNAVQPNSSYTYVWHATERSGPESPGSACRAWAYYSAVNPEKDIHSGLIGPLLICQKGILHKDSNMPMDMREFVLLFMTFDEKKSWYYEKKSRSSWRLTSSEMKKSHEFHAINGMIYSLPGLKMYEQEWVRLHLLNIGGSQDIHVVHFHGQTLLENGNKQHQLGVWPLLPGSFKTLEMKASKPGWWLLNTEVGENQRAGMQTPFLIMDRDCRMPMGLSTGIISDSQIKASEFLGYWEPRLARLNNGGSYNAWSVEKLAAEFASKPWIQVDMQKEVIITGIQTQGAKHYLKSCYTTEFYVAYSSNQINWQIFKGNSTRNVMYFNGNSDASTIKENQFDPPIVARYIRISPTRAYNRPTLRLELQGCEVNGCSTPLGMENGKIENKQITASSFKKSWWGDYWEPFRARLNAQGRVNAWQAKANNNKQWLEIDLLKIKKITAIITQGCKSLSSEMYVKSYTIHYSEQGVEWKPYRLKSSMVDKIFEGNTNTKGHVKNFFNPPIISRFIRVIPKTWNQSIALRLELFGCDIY", "assay": "Assay 1A: prothrombin activation by factor Xa/factor Va/myosin in purified system", "type": "biochemical, human factors Xa and Va; rabbit skeletal muscle myosin", "details": "purified system; skeletal muscle myosin, factor Va 5 nM, factor Xa 0.2 nM, prothrombin 0.75 μM, 10 min; read-out: 1A (+myosin)"}
{"compound": "CC[C@H](C)[C@H](NC(=O)[C@H](CS)NC(=O)[C@H](Cc1ccccc1)NC(=O)[C@H](C)NC(=O)[C@H](C)N)C(=O)N[C@@H](CCC(N)=O)C(=O)N[C@@H](Cc1ccc(O)cc1)C(=O)N[C@@H](CC(N)=O)C(=O)N[C@H](C(=O)N[C@@H](CCCNC(=N)N)C(=O)N[C@@H](CO)C(=O)N[C@@H](Cc1ccccc1)C(=O)N[C@@H](CCSC)C(=O)N[C@@H](CC(N)=O)C(=O)N[C@H](C(=O)N[C@@H](CCCCN)C(=O)N[C@@H](Cc1c[nH]cn1)C(=O)N[C@@H](Cc1c[nH]c2ccccc12)C(=O)N1CCC[C@H]1C(=O)N[C@@H](Cc1c[nH]c2ccccc12)C(=O)N[C@@H](CCSC)C(=O)N[C@@H](CCCCN)C(N)=O)C(C)C)[C@@H](C)CC", "note": "[HC117] (H-AAFCIQYNIRSFMNVKHWPWMK-NH2; N-terminus assumed)", "pIC50": 6.11}
{"compound": "CC[C@H](C)[C@H](NC(=O)[C@H](C)N)C(=O)N[C@@H](C)C(=O)N[C@@H](CS)C(=O)N[C@H](C(=O)N[C@@H](CCC(N)=O)C(=O)N[C@@H](Cc1ccc(O)cc1)C(=O)N[C@@H](CC(N)=O)C(=O)N[C@H](C(=O)N[C@@H](CCCNC(=N)N)C(=O)N[C@@H](CO)C(=O)N[C@@H](Cc1ccccc1)C(=O)N[C@@H](CCSC)C(=O)N[C@@H](CC(N)=O)C(=O)N[C@H](C(=O)N[C@@H](CCCCN)C(=O)N[C@@H](Cc1c[nH]cn1)C(=O)N[C@@H](Cc1c[nH]c2ccccc12)C(=O)N1CCC[C@H]1C(=O)N[C@@H](Cc1c[nH]c2ccccc12)C(=O)N[C@@H](CCSC)C(=O)N[C@@H](CCCCN)C(N)=O)C(C)C)[C@@H](C)CC)[C@@H](C)CC", "note": "[HC118] (H-AIACIQYNIRSFMNVKHWPWMK-NH2; N-terminus assumed)", "pIC50": 5.74}
{"compound": "CC[C@H](C)[C@H](NC(=O)[C@H](C)N)C(=O)N[C@@H](Cc1ccccc1)C(=O)N[C@@H](C)C(=O)N[C@H](C(=O)N[C@@H](CCC(N)=O)C(=O)N[C@@H](Cc1ccc(O)cc1)C(=O)N[C@@H](CC(N)=O)C(=O)N[C@H](C(=O)N[C@@H](CCCNC(=N)N)C(=O)N[C@@H](CO)C(=O)N[C@@H](Cc1ccccc1)C(=O)N[C@@H](CCSC)C(=O)N[C@@H](CC(N)=O)C(=O)N[C@H](C(=O)N[C@@H](CCCCN)C(=O)N[C@@H](Cc1c[nH]cn1)C(=O)N[C@@H](Cc1c[nH]c2ccccc12)C(=O)N1CCC[C@H]1C(=O)N[C@@H](Cc1c[nH]c2ccccc12)C(=O)N[C@@H](CCSC)C(=O)N[C@@H](CCCCN)C(N)=O)C(C)C)[C@@H](C)CC)[C@@H](C)CC", "note": "[HC119] (H-AIFAIQYNIRSFMNVKHWPWMK-NH2; N-terminus assumed)", "pIC50": 5.28}
{"compound": "CC[C@H](C)[C@H](NC(=O)[C@H](C)N)C(=O)N[C@@H](Cc1ccccc1)C(=O)N[C@@H](CS)C(=O)N[C@@H](C)C(=O)N[C@@H](CCC(N)=O)C(=O)N[C@@H](Cc1ccc(O)cc1)C(=O)N[C@@H](CC(N)=O)C(=O)N[C@H](C(=O)N[C@@H](CCCNC(=N)N)C(=O)N[C@@H](CO)C(=O)N[C@@H](Cc1ccccc1)C(=O)N[C@@H](CCSC)C(=O)N[C@@H](CC(N)=O)C(=O)N[C@H](C(=O)N[C@@H](CCCCN)C(=O)N[C@@H](Cc1c[nH]cn1)C(=O)N[C@@H](Cc1c[nH]c2ccccc12)C(=O)N1CCC[C@H]1C(=O)N[C@@H](Cc1c[nH]c2ccccc12)C(=O)N[C@@H](CCSC)C(=O)N[C@@H](CCCCN)C(N)=O)C(C)C)[C@@H](C)CC", "note": "[HC120] (H-AIFCAQYNIRSFMNVKHWPWMK-NH2; N-terminus assumed)", "pIC50": 5.28}
{"compound": "CC[C@H](C)[C@H](NC(=O)[C@H](C)N)C(=O)N[C@@H](Cc1ccccc1)C(=O)N[C@@H](CS)C(=O)N[C@H](C(=O)N[C@@H](C)C(=O)N[C@@H](Cc1ccc(O)cc1)C(=O)N[C@@H](CC(N)=O)C(=O)N[C@H](C(=O)N[C@@H](CCCNC(=N)N)C(=O)N[C@@H](CO)C(=O)N[C@@H](Cc1ccccc1)C(=O)N[C@@H](CCSC)C(=O)N[C@@H](CC(N)=O)C(=O)N[C@H](C(=O)N[C@@H](CCCCN)C(=O)N[C@@H](Cc1c[nH]cn1)C(=O)N[C@@H](Cc1c[nH]c2ccccc12)C(=O)N1CCC[C@H]1C(=O)N[C@@H](Cc1c[nH]c2ccccc12)C(=O)N[C@@H](CCSC)C(=O)N[C@@H](CCCCN)C(N)=O)C(C)C)[C@@H](C)CC)[C@@H](C)CC", "note": "[HC121] (H-AIFCIAYNIRSFMNVKHWPWMK-NH2; N-terminus assumed)", "pIC50": 5.49}
{"compound": "CC[C@H](C)[C@H](NC(=O)[C@H](C)N)C(=O)N[C@@H](Cc1ccccc1)C(=O)N[C@@H](CS)C(=O)N[C@H](C(=O)N[C@@H](CCC(N)=O)C(=O)N[C@@H](C)C(=O)N[C@@H](CC(N)=O)C(=O)N[C@H](C(=O)N[C@@H](CCCNC(=N)N)C(=O)N[C@@H](CO)C(=O)N[C@@H](Cc1ccccc1)C(=O)N[C@@H](CCSC)C(=O)N[C@@H](CC(N)=O)C(=O)N[C@H](C(=O)N[C@@H](CCCCN)C(=O)N[C@@H](Cc1c[nH]cn1)C(=O)N[C@@H](Cc1c[nH]c2ccccc12)C(=O)N1CCC[C@H]1C(=O)N[C@@H](Cc1c[nH]c2ccccc12)C(=O)N[C@@H](CCSC)C(=O)N[C@@H](CCCCN)C(N)=O)C(C)C)[C@@H](C)CC)[C@@H](C)CC", "note": "[HC122] (H-AIFCIQANIRSFMNVKHWPWMK-NH2; N-terminus assumed)", "pIC50": 5.96}
{"compound": "CC[C@H](C)[C@H](NC(=O)[C@H](C)N)C(=O)N[C@@H](Cc1ccccc1)C(=O)N[C@@H](CS)C(=O)N[C@H](C(=O)N[C@@H](CCC(N)=O)C(=O)N[C@@H](Cc1ccc(O)cc1)C(=O)N[C@@H](C)C(=O)N[C@H](C(=O)N[C@@H](CCCNC(=N)N)C(=O)N[C@@H](CO)C(=O)N[C@@H](Cc1ccccc1)C(=O)N[C@@H](CCSC)C(=O)N[C@@H](CC(N)=O)C(=O)N[C@H](C(=O)N[C@@H](CCCCN)C(=O)N[C@@H](Cc1c[nH]cn1)C(=O)N[C@@H](Cc1c[nH]c2ccccc12)C(=O)N1CCC[C@H]1C(=O)N[C@@H](Cc1c[nH]c2ccccc12)C(=O)N[C@@H](CCSC)C(=O)N[C@@H](CCCCN)C(N)=O)C(C)C)[C@@H](C)CC)[C@@H](C)CC", "note": "[HC123] (H-AIFCIQYAIRSFMNVKHWPWMK-NH2; N-terminus assumed)", "pIC50": 6.22}
{"compound": "CC[C@H](C)[C@H](NC(=O)[C@H](C)N)C(=O)N[C@@H](Cc1ccccc1)C(=O)N[C@@H](CS)C(=O)N[C@H](C(=O)N[C@@H](CCC(N)=O)C(=O)N[C@@H](Cc1ccc(O)cc1)C(=O)N[C@@H](CC(N)=O)C(=O)N[C@@H](C)C(=O)N[C@@H](CCCNC(=N)N)C(=O)N[C@@H](CO)C(=O)N[C@@H](Cc1ccccc1)C(=O)N[C@@H](CCSC)C(=O)N[C@@H](CC(N)=O)C(=O)N[C@H](C(=O)N[C@@H](CCCCN)C(=O)N[C@@H](Cc1c[nH]cn1)C(=O)N[C@@H](Cc1c[nH]c2ccccc12)C(=O)N1CCC[C@H]1C(=O)N[C@@H](Cc1c[nH]c2ccccc12)C(=O)N[C@@H](CCSC)C(=O)N[C@@H](CCCCN)C(N)=O)C(C)C)[C@@H](C)CC", "note": "[HC124] (H-AIFCIQYNARSFMNVKHWPWMK-NH2; N-terminus assumed)", "pIC50": 6.15}
{"compound": "CC[C@H](C)[C@H](NC(=O)[C@H](C)N)C(=O)N[C@@H](Cc1ccccc1)C(=O)N[C@@H](CS)C(=O)N[C@H](C(=O)N[C@@H](CCC(N)=O)C(=O)N[C@@H](Cc1ccc(O)cc1)C(=O)N[C@@H](CC(N)=O)C(=O)N[C@H](C(=O)N[C@@H](C)C(=O)N[C@@H](CO)C(=O)N[C@@H](Cc1ccccc1)C(=O)N[C@@H](CCSC)C(=O)N[C@@H](CC(N)=O)C(=O)N[C@H](C(=O)N[C@@H](CCCCN)C(=O)N[C@@H](Cc1c[nH]cn1)C(=O)N[C@@H](Cc1c[nH]c2ccccc12)C(=O)N1CCC[C@H]1C(=O)N[C@@H](Cc1c[nH]c2ccccc12)C(=O)N[C@@H](CCSC)C(=O)N[C@@H](CCCCN)C(N)=O)C(C)C)[C@@H](C)CC)[C@@H](C)CC", "note": "[HC125] (H-AIFCIQYNIASFMNVKHWPWMK-NH2; N-terminus assumed)", "pIC50": 6.22}
